Results as given in ChEMBL document CHEMBL3352560, “Optimization of drug-like properties of nonsteroidal glucocorticoid mimetics and identification of a clinical candidate” (ACS Med Chem Lett, 2014).
In brackets after ≈: the same amount, converted by molar mass.

How the values were obtained:
physchem = conditions: buffer, pH 6.8
[1] = buffer, pH 6.8, 24 h
in vivo = conditions: rat

CC(C)(CC(O)(Cc1cc2cc(N3CCOCC3)ncc2[nH]1)C(F)(F)F)c1cccc(S(C)(=O)=O)c1 (stereo not drawn)
solubility thermodynamic at 24 h (physchem): 47 µg/mL (≈ 89.4 µM)

CCS(=O)(=O)c1cc2cc(C[C@](O)(CC(C)(C)c3ccc(F)cc3C(N)=O)C(F)(F)F)[nH]c2cn1 [BI 653048]
Therm_solubility [1]: 5 µg/mL
half-life (in vivo): 4.2 h
